Measurements from patent US10981917B2, “Heterocyclic compound, its preparation method, and pharmaceutical composition comprising the same” (Daewoong Pharmaceutical Co., Ltd., priority 2017, dated 2021).

Target: PRS (prolyl-tRNA synthetase) protein, PRS portion of EPRS (Homo sapiens (Human), UniProt P07814)
Assay: PRS enzyme activity inhibition experiment ([3H]proline, liquid scintillation)
Format: biochemical
Conditions: purified PRS protein, 37° C. for 5 to 10 minutes
Method in brief: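 Values are % inhibition or IC50 ranges (A ≤100 nM, B 100–500 nM, C ≥500 nM) from [3H]proline incorporation measured by liquid scintillation. PRS portion of human EPRS, reacted 5–10 min at 37 °C in pH 7.4 phosphate buffer containing 5 mM ATP and tRNA, compound at 1 μM.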

PRS (prolyl-tRNA synthetase) protein, PRS portion of EPRS, sequence (P07814 1007-1512): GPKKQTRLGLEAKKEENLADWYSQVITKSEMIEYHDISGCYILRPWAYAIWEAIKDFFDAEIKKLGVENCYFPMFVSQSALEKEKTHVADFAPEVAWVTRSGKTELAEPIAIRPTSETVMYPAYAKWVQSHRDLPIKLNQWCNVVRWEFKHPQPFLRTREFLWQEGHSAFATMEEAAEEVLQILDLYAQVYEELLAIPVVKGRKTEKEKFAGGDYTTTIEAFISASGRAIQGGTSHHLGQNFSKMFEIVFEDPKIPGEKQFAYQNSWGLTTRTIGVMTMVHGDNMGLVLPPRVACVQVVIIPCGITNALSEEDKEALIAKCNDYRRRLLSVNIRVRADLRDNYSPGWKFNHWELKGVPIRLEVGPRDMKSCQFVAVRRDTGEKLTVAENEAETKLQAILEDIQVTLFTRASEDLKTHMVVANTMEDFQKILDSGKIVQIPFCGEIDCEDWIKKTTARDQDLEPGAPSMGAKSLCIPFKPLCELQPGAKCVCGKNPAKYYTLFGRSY

Row | Structure (SMILES) | IC50
1 | O=C(O)c1cn(C/C=C/[C@H]2NCCC[C@@H]2O)c2cc(F)ccc12 [Example 208, 6-fluoro-1-((E)-3-((2R,3S)-3-hydroxypiperidin-2-yl)allyl)-1H-indole-3-carboxylic acid] | ≥ 500 nM
2 | O=C(O)c1cn(C/C=C/[C@H]2NCCC[C@@H]2O)c2ccccc12 [Example 209, 1-((E)-3-((2R,3S)-3-hydroxypiperidin-2-yl)allyl)-1H-indole-3-carboxylic acid] | ≥ 500 nM
3 | COC(=O)c1cn(C/C=C/[C@H]2NCCC[C@@H]2O)c2cccc(Cl)c12 [Example 210, methyl 4-chloro-1-((E)-3-((2R,3S)-3-hydroxypiperidin-2-yl)allyl)-1H-indole-3-carboxylate] | ≥ 500 nM
4 | COC(=O)c1cn(C/C=C/[C@H]2NCCC[C@@H]2O)c2cc(Cl)ccc12 [Example 211, methyl 6-chloro-1-((E)-3-((2R,3S)-3-hydroxypiperidin-2-yl)allyl)-1H-indole-3-carboxylate] | ≥ 500 nM
5 | COC(=O)c1cn(C/C=C/[C@H]2NCCC[C@@H]2O)c2c(Cl)cccc12 [Example 212, methyl 7-chloro-1-((E)-3-((2R,3S)-3-hydroxypiperidin-2-yl)allyl)-1H-indole-3-carboxylate] | ≥ 500 nM
6 | COC(=O)c1cn(C/C=C/[C@H]2NCCC[C@@H]2O)c2ccc(Br)cc12 [Example 213, methyl 5-bromo-1-((E)-3-((2R,3S)-3-hydroxypiperidin-2-yl)allyl)-1H-indole-3-carboxylate] | ≥ 500 nM
7 | COC(=O)c1cn(C/C=C/[C@H]2NCCC[C@@H]2O)c2cc(Br)ccc12 [Example 214, methyl 6-bromo-1-((E)-3-((2R,3S)-3-hydroxypiperidin-2-yl)allyl)-1H-indole-3-carboxylate] | 100 to 500 nM
8 | CNC(=O)c1cn(C/C=C/[C@H]2NCCC[C@@H]2O)c2ccc(Br)cc12 [Example 215, 5-bromo-1-((E)-3-((2R,3S)-3-hydroxypiperidin-2-yl)allyl)-N-methyl-1H-indole-3-carboxamide] | ≥ 500 nM
9 | CN(C)C(=O)c1cn(C/C=C/[C@H]2NCCC[C@@H]2O)c2ccc(Br)cc12 [Example 216, 5-bromo-1-((E)-3-((2R,3S)-3-hydroxypiperidin-2-yl)allyl)-N,N-dimethyl-1H-indole-3-carboxamide] | ≥ 500 nM
10 | Cc1c(Cl)ccc2c1ncn2C/C(F)=C/[C@H]1NCCC[C@@H]1O [Example 217, (2R,3S)-2-((Z)-3-(5-chloro-4-methyl-1H-benzo[d]imidazol-1-yl)-2-fluoroprop-1-enyl)piperidin-3-ol] | ≥ 500 nM
11 | Cc1c(Br)ccc2c1ncn2C/C(F)=C/[C@H]1NCCC[C@@H]1O [Example 218, (2R,3S)-2-((Z)-3-(5-bromo-4-methyl-1H-benzo[d]imidazol-1-yl)-2-fluoroprop-1-en-1-yl)piperidin-3-ol] | ≥ 500 nM
12 | O[C@H]1CCCN[C@@H]1/C=C(\F)Cn1cnc2cc(Cl)c(Cl)cc21 [Example 219, (2R,3S)-2-((Z)-3-(5,6-dichloro-1H-benzo[d]imidazol-1-yl)-2-fluoroprop-1-en-1-yl)piperidin-3-ol] | ≥ 500 nM
13 | OCc1nc2cc(Cl)c(Cl)cc2n1C/C(F)=C/[C@H]1NCCC[C@@H]1O [Example 220, (2R,3S)-2-((Z)-3-(5,6-dichloro-2-(hydroxymethyl)-1H-benzo[d]imidazol-1-yl)-2-fluoroprop-1-en-1-yl)piperidin-3-ol] | ≥ 500 nM
14 | C/C(=C\[C@H]1NCCC[C@@H]1O)Cn1cnc2c(C)c(Cl)ccc21 [Example 221, (2R,3S)-2-((E)-3-(5-chloro-4-methyl-1H-benzo[d]imidazol-1-yl)-2-methylprop-1-en-1-yl)piperidin-3-ol] | ≥ 500 nM
15 | C/C(=C\[C@H]1NCCC[C@@H]1O)Cn1cnc2c(C)c(Br)ccc21 [Example 222, (2R,3S)-2-((E)-3-(5-bromo-4-methyl-1H-benzo[d]imidazol-1-yl)-2-methylprop-1-en-1-yl)piperidin-3-ol] | ≥ 500 nM
16 | C/C(=C\[C@H]1NCCC[C@@H]1O)Cn1cnc2cc(Cl)c(Cl)cc21 [Example 223, (2R,3S)-2-((E)-3-(5,6-dichloro-1H-benzo[d]imidazol-1-yl)-2-methylprop-1-en-1-yl)piperidin-3-ol] | ≥ 500 nM
17 | C/C(=C\[C@H]1NCCC[C@@H]1O)Cn1c(CO)nc2cc(Cl)c(Cl)cc21 [Example 224, (2R,3S)-2-((E)-3-(5,6-dichloro-2-(hydroxymethyl)-1H-benzo[d]imidazol-1-yl)-2-methylprop-1-en-1-yl)piperidin-3-ol] | ≥ 500 nM
18 | O[C@H]1CCCN[C@@H]1C#CCn1cnc2cc(Cl)c(Cl)cc21 [Example 225, (2R,3S)-2-(3-(5,6-dichloro-1H-benzo[d]imidazol-1-yl)prop-1-yn-1-yl)piperidin-3-ol] | ≥ 500 nM
19 | Cc1c(Br)ccc2c1ncn2CC#C[C@H]1NCCC[C@@H]1O [Example 226, (2R,3S)-2-(3-(5-bromo-4-methyl-1H-benzo[d]imidazol-1-yl)prop-1-yn-1-yl)piperidin-3-ol] | ≥ 500 nM
20 | Cc1c(Cl)ccc2c1ncn2CC#C[C@H]1NCCC[C@@H]1O [Example 227, (2R,3S)-2-(3-(5-chloro-4-methyl-1H-benzo[d]imidazol-1-yl)prop-1-yn-1-yl)piperidin-3-ol] | ≥ 500 nM
21 | O[C@H]1CCCN[C@@H]1C#CCn1cnc2cc(Br)c(Br)cc21 [Example 228, (2R,3S)-2-(3-(5,6-dibromo-1H-benzo[d]imidazol-1-yl)prop-1-yn-1-yl)piperidin-3-ol] | ≥ 500 nM
22 | Cc1c(F)ccc2c1ncn2CC#C[C@H]1NCCC[C@@H]1O [Example 229, (2R,3S)-2-(3-(5-fluoro-4-methyl-1H-benzo[d]imidazol-1-yl)prop-1-yn-1-yl)piperidin-3-ol] | ≥ 500 nM
23 | O[C@H]1CCN[C@@H]1/C=C/Cn1cnc2cc(Cl)c(Cl)cc21 [Example 230, (2R,3S)-2-((E)-3-(5,6-dichloro-1H-benzo[d]imidazol-1-yl)prop-1-en-1-yl)pyrrolidin-3-ol] | ≥ 500 nM
